In PubChem BioAssay (NCI) one finds TGI and GI50 data, which are given here for 14 compounds.

Values joined by “and” are separate entries in the source; they are usually repeats but may differ in a detail not shown here. Equal entries are not always repeated.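 Assay format: 96-well plates, 48-hour exposure. GI50: concentration for 50% inhibition of growth. TGI: total growth inhibition.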

Common to all, as to experiment: NCI anticancer screen, dose series, 48 h
The subject of experiment [1] is ACHN renal.
Experiment [2] has as its system HCT-116 colon.
In experiment [3] the test system is KM12 colon.
Experiment [4] has as its system RXF 393 renal.
Experiment [5] concerns SF-295 CNS.
Experiment [6] relates to TK-10 renal.
The subject of experiment [7] is UACC-257 melanoma.
Experiment [8] concerns SR leukemia.
For experiment [9], the system named is HS 578T breast.
In experiment [10] the test system is MCF7 breast.

Turning to `COC(=O)CCC12CCC(=O)C1[C@@H](C(=O)OC)C[C@H]2C(=O)OC` (stereo partly drawn), the TGI in experiment [1], in experiment [2], in [3], in [4], in experiment [5] and in [6] was > 100 µM throughout. Also, the TGI in experiment [7] was > 100 µM.

With `Cc1c2c(cc3c1C(=O)C(=O)C1=C3OC[C@@H]1C)C(C)(C)CCC2`, the TGI is 38.3 µM in experiment [1]; 26.7 µM in experiment [2]; 24.7 µM in experiment [3]; 33.5 µM in experiment [4]; 27.8 µM in experiment [5]; 50.2 µM in experiment [8]. Moreover, the TGI in experiment [6] was 56.7 µM; in experiment [7] it was 28.4 µM.

Consider `O=C1C(=O)N(c2ccc(Cl)cc2)C(=O)C(=O)C1c1nc2ccccc2s1`, for which the TGI in [1], in [2], in [3], in experiment [4], in experiment [5] and in experiment [6] was > 100 µM throughout. Also, the TGI in [7] is > 100 µM.

With `COc1ccc(-c2cc(C(=O)Nc3cc(C(F)(F)F)cc(C(F)(F)F)c3)c3ccccc3n2)cc1`, the TGI in experiment [1] stood at 76.2 µM; in experiment [2], 18.6 µM; in experiment [3], 35.1 µM; in [4] it was 21 µM; in [5] it was 32.5 µM; in experiment [8] it was 38.5 µM. Besides, the results for the TGI in experiment [6] and in experiment [7] were 29.5 µM and 51.4 µM, respectively.

As for `Cc1ccc(Oc2ccccc2N)cc1`, the TGI was 36 µM in experiment [2]; > 100 µM in experiment [3]; > 100 µM in experiment [4]; > 100 µM in experiment [5]; > 100 µM in experiment [8]; > 100 µM in experiment [6]. The TGI in experiment [7] is > 100 µM.

On to `Clc1cccc(N2CCN(CCCN3CCc4c([nH]c5ccccc45)C3c3cccnc3)CC2)c1` (stereo not drawn), for which the TGI was 31.3 µM in experiment [1]; 24.9 µM in [2]; 31 µM in [4]; 7.34 µM and 24.6 µM in experiment [8]; 12.1 µM in experiment [7]. Besides, the GI50 was 6.97 µM in [2], 11.5 µM in experiment [4] and 4.58 µM in [8].

Take `[O-]c1ccccc1C=Nc1ccc2c(c1)CCC2.[O-]c1ccccc1C=Nc1ccc2c(c1)CCC2.[O]=[U+2]=[O]`: the GI50 in experiment [1] is 70.3 µM; in [2], 13.5 µM; in experiment [3], > 100 µM; in experiment [4], > 100 µM; in [5], > 100 µM; in experiment [6] it was 30.1 µM. Moreover, the GI50 in experiment [7] was > 100 µM. For the same compound, the TGI was > 100 µM in [1]; > 100 µM in [2]; > 100 µM in experiment [3]; > 100 µM in experiment [4]; > 100 µM in experiment [5]; 82.2 µM in experiment [6]. Moreover, the TGI in experiment [7] was > 100 µM.

Regarding `NNc1cnn(-c2ccccc2)c(=O)c1Cl`, the TGI in [1], in experiment [2], in [3], in experiment [4], in experiment [5] and in [8] was > 100 µM throughout. Also, the TGI in [6] and in experiment [7] was > 100 µM each time.

As for `Cc1c(C(=O)/C=C/C=C/c2ccccc2)[n+](=O)c2ccccc2n1[O-]`, the TGI in experiment [1] is 60.8 µM; in experiment [3], 43.7 µM; in experiment [5], > 100 µM; in experiment [6], > 100 µM; in experiment [7], 84.6 µM.

On to `O=C(O)/C=C\C(=O)Nc1ccccn1`, for which the TGI in [1], in [2], in experiment [9], in [3], in [4] and in experiment [5] was > 100 µM in each case. Also, the TGI in [8] and in experiment [7] was > 100 µM in each case.

Take `CC(C)(O)/C=C/C(=O)[C@](C)(O)[C@H]1[C@H](O)C[C@@]2(C)[C@@H]3CC=C4[C@@H](C[C@H](O)C(=O)C4(C)C)[C@]3(C)C(=O)C[C@]12C`: the GI50 in experiment [1] is 0.197 µM and 1.28 µM; in experiment [2] it was 0.164 µM; in experiment [3], 0.948 µM; in experiment [4], 0.187 µM; in experiment [5] it was 0.264 µM; in experiment [8] it was 0.39 µM. Besides, the TGI in [1] was 0.931 µM and 8.45 µM; in experiment [3], 25 µM; in experiment [4], 0.408 µM and 0.263 µM; in [5] it was 0.629 µM and 2.61 µM; in [8], 5.05 µM; in experiment [6] it was 0.473 µM and 0.495 µM. The TGI in experiment [7] is 0.598 µM and 2.81 µM.

Regarding `NCCCCC1NC(=O)C(CC(=O)O)NC(=O)CNC(=O)C(CCCN=C(N)N)NC(=O)C(N)CSSCC(C(=O)O)NC(=O)C(CC(=O)O)NC(=O)C2CCCN2C(=O)CNC1=O` (stereo not drawn), the GI50 in experiment [1], in experiment [2], in experiment [9], in experiment [3], in experiment [10] and in experiment [4] was > 100 µM each time. Further, the GI50 in experiment [5] and in experiment [6] was > 100 µM throughout. Also, the TGI in experiment [1], in [2], in [9], in experiment [3], in experiment [10] and in experiment [4] was > 100 µM throughout. Moreover, the TGI in experiment [5] and in [6] was > 100 µM each time.

With `O=C(O)c1cc(=O)c2c([nH]c3ccccc32)s1`, the TGI in experiment [1], in experiment [3], in [4], in experiment [5], in experiment [6] and in experiment [7] was > 100 µM each time.

On to `C#CCNC(=O)NCCCCC(NC(=O)OCc1ccccc1)C(=O)OCc1ccccc1` (stereo not drawn), for which the TGI was > 31.6 µM in experiment [1]; > 100 µM in experiment [2]; 69.8 µM in [3]; > 100 µM in experiment [4]; > 100 µM in experiment [5]; > 100 µM in experiment [8]. Besides, the TGI in experiment [6] and in experiment [7] was > 100 µM in each case.
